Values after ≈ are worked out from the molar mass of the structure shown.
system: HIV-1NL4-3-GFP-P2A-Nef; test: ART and LASER ART drug cocktails at 5×EC90 in HIV-1 infected Jurkat T cell line; format: cell-based; conditions: Human immunodeficiency virus 1, Jurkat, read-out: 5×EC90 values
Experimental: FIGS. 6A-6C show the combined effect of ART and CRISPR/Cas9 on HIV-1 infection of Jurkat T cell line. FIG. 6A: Experimental design and procedure. Jurkat cells were infected with HIV-1NL4-3-GFP-P2A-Nef at multiplicity of infection (MOI) 0.001 and 0.01. […] At day 6 of infection the drugs were removed to allow efficient lentiviral transduction of Cas9 and gRNAs LTR A and LTR B which was conducted at day 7. At day 8 antiretrovirals were added back and continued for another 4 days. Twelve days after HIV-1 infection cells were collected, genomic DNA was extracted and analyzed by PCR for CRISPR-Cas9 mediated cleavage of viral LTR sequences. FIG. 6B: Quantification of the level of infection at day 7. Cells were fixed with 2% PFA and FACS analysis was performed to measure GFP expressing population for HIV infection/replication in vitro. FIG. 6C: Similar to FIG. 6B with exception that cells were treated with modified ART.
In vitro Infection: HEK-293T cells were transfected using CaPO4 precipitation method in the presence of chloroquine (50 μM) with 30 μg of pNL4-3-EGFP-P2A-Nef plasmid (13)/2.5×10^6 cells/100 mm dish. Next day, medium was replaced; and 24 h and 48 h later supernatants were collected, clarified at 3000 RPM for 10 minutes, filtered through 0.45 um filter, and concentrated by ultracentrifugation for 2 h with 20% sucrose cushion (25). Viral pellets were resuspended in HBSS by gentle agitation overnight, aliquoted, and tittered in Jurkat cells by FACS for GFP expression. Jurkat cells were infected by spinoculation for 1.5 h (26), 32° C. in 500 μl inoculum containing 8 μg/ml polybrene then resuspended and left for 4 h then 500 μl of growth medium was added. Next day, cells were washed 3 times with PBS and re-suspended in growth medium.

Q: Which EC90 does the source give for `Nc1ccn([C@@H]2CS[C@H](CO)O2)c(=O)n1` [3TC, lamivudine] here?
A: Its EC90 is 17.2 µg/mL (≈ 75 µM).

Q: For `Nc1nc(NC2CC2)c2ncn([C@H]3C=C[C@@H](CO)C3)c2n1` [ABC, abacavir], which EC90 is on record?
A: The EC90 was 8.3 µg/mL (≈ 29 µM).

Q: Which EC90 does the source give for `Cc1cc(/C=C/C#N)cc(C)c1Nc1ccnc(Nc2ccc(C#N)cc2)n1` [RPV, rilpivirine] here?
A: Its EC90 is 0.0033 µg/mL (≈ 0.00901 µM).

Q: How did the EC90 turn out when `C[C@@H]1CCO[C@H]2Cn3cc(C(=O)NCc4ccc(F)cc4F)c(=O)c(O)c3C(=O)N12` [DTG, dolutegravir] was run?
A: The EC90 was 0.0111 µg/mL (≈ 0.0265 µM).

same assay, conditions: concentration used in the cocktail, equal to 5×EC90

Q: With `CCCCCCCCCCCCCC(=O)OCC1OC(n2ccc(N)nc2=O)CS1` (stereo not shown) [M3TC, myristoylated lamivudine] as the molecule, how does the “5×EC90 values” read?
A: The value was 32.9 µg/mL.

Q: With `CCCCCCCCCCCCCC(=O)Oc1c2n(cc(C(=O)NCc3ccc(F)cc3F)c1=O)C[C@@H]1OCC[C@@H](C)N1C2=O` [MDTG, myristoylated dolutegravir] as the molecule, how does the “5×EC90 values” read?
A: Its value is 0.0167 µg/mL.

Q: Which “5×EC90 values” does the source give for `CCCCCCCCCCCCCC(=O)OCC1C=CC(n2cnc3c(NC4CC4)nc(N)nc32)C1` (stereo not shown) [MABC, myristoylated abacavir] here?
A: The value was 14.4 µg/mL.

From patent US20210060138A1 (priority 2019, published 2021)
